Reference: patent publication US10519154B2, “7-substituted 1-pyridyl-naphthyridine-3-carboxylic acid amides and use thereof” (Bayer Pharma Aktiengesellschaft, priority 2016, dated 2019)

Biological target: T1, human M2 receptor (Homo sapiens, UniProt P08172)
T1 sequence (P08172 1-466): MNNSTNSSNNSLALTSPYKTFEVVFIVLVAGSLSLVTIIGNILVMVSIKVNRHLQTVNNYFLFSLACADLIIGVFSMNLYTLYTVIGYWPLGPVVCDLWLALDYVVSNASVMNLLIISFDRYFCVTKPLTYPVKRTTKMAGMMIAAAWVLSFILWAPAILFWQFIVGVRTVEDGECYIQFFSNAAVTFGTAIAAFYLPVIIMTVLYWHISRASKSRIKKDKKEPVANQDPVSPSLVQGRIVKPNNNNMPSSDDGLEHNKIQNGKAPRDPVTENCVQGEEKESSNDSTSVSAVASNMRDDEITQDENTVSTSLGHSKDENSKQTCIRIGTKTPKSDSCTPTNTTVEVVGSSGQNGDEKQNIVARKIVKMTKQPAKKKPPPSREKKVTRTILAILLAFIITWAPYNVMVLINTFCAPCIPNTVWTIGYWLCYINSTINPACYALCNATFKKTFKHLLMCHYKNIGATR
Assay: Functional M2-GIRK1/4 activation test: allosteric potency (EC50) and efficiency
Details: for EC50: Receptor activity EC50, CHO-DUKX-M2-GIRK cells, acetylcholine at EC20, in some cases mean of two or more determinations; for Emax: read-out: Efficiency, boosting of the acetylcholine effect at EC20 acetylcholine concentration; for Emax / Efficiency: CHO-DUKX-M2-GIRK cells; for Efficiency: boosting of the acetylcholine effect at EC20 acetylcholine concentration

| SMILES | EC50 | Emax | Efficiency |
| --- | --- | --- | --- |
| CC(C)C[C@@H](NC(=O)c1cn(-c2ncc(F)cc2F)c2nc(N3C[C@@H](O)CC3=O)ccc2c1=O)C(F)(F)F [Example 74, 1-(3,5-Difluoropyridin-2-yl)-7-[(4S)-4-hydroxy-2-oxopyrrolidin-1-yl]-4-oxo-N-[(2R)-1,1,1-trifluoro-4-methylpentan-2-yl]-1,4-dihydro-1,8-naphthyridine-3-carboxamide] | 14 nM | 100% |  |
| CC(C)(NC(=O)c1cn(-c2ncc(F)cc2F)c2nc(N3CCC(CO)(CO)CC3)ccc2c1=O)C(F)(F)C(F)(F)F [Example 187] | 265 nM | 97.5% |  |
| CC(C)(CC(F)(F)F)NC(=O)c1cn(-c2ncc(F)cc2F)c2nc(N3CCNC3=O)ccc2c1=O [Example 145, 1-(3,5-Difluoropyridin-2-yl)-4-oxo-7-(2-oxoimidazolidin-1-yl)-N-(4,4,4-trifluoro-2-methylbutan-2-yl)-1,4-dihydro-1,8-naphthyridine-3-carboxamide] | 435 nM | 98.5% |  |
| CC[C@H](NC(=O)c1cn(-c2ncc(F)cc2F)c2nc(N3CC(O)C(C)C3=O)ccc2c1=O)C(F)(F)F (single isomer, unassigned) [Example 110] | 190 nM |  | 94.50% |
| O=C(N[C@H](C1CC1)C(F)(F)F)c1cn(-c2ncc(F)cc2F)c2nc(N3CC4CC4(O)C3)ccc2c1=O (mixture of isomers) [Example 37, N-[(1R)-1-Cyclopropyl-2,2,2-trifluoroethyl]-1-(3,5-difluoropyridin-2-yl)-7-[1-hydroxy-3-azabicyclo[3.1.0]hex-3-yl]-4-oxo-1,4-dihydro-1,8-naphthyridine-3-carboxamide] | 21 nM | 99% |  |
| CC(C)C[C@H](NC(=O)c1cn(-c2ncc(F)cc2F)c2nc(N3C[C@@H](O)CC3=O)ccc2c1=O)C(F)(F)F [Example 75, 1-(3,5-Difluoropyridin-2-yl)-7-[(4S)-4-hydroxy-2-oxopyrrolidin-1-yl]-4-oxo-N-[(2S)-1,1,1-trifluoro-4-methylpentan-2-yl]-1,4-dihydro-1,8-naphthyridine-3-carboxamide] | 19 nM | 100% |  |
| O=C(NC(c1ccccc1Cl)C(F)(F)F)c1cn(-c2ncc(F)cc2F)c2nc(N3CCNC3=O)ccc2c1=O (single isomer, unassigned) [Example 149, N-[1-(2-Chlorophenyl)-2,2,2-trifluoroethyl]-1-(3,5-difluoropyridin-2-yl)-4-oxo-7-(2-oxoimidazolidin-1-yl)-1,4-dihydro-1,8-naphthyridine-3-carboxamide] | 32 nM |  | 100.00% |
| CC(C)(C)[C@H](NC(=O)c1cn(-c2ncc(F)cc2F)c2nc(N3CCNC3=O)ccc2c1=O)C(F)(F)F [Example 100, 1-(3,5-Difluoropyridin-2-yl)-4-oxo-7-(2-oxoimidazolidin-1-yl)-N-[(2S)-1,1,1-trifluoro-3,3-dimethylbutan-2-yl]-1,4-dihydro-1,8-naphthyridine-3-carboxamide] | 26 nM | 100% |  |
| CC[C@@H](NC(=O)c1cn(-c2ncc(F)cc2F)c2nc(N3CCCC(F)(F)C3)ccc2c1=O)C(F)(F)F [Example 72, 7-(3,3-Difluoropiperidin-1-yl)-1-(3,5-difluoropyridin-2-yl)-4-oxo-N-[(2R)-1,1,1-trifluorobutan-2-yl]-1,4-dihydro-1,8-naphthyridine-3-carboxamide] | 45 nM | 90% |  |
| O=C(N[C@H](C1CC1)C(F)(F)F)c1cn(-c2ncccc2F)c2nc(N3CC4CC4(O)C3)ccc2c1=O (mixture of isomers) [Example 135, N-[(1R)-1-Cyclopropyl-2,2,2-trifluoroethyl]-1-(3-fluoropyridin-2-yl)-7-[(1S)-1-hydroxy-3-azabicyclo[3.1.0]hex-3-yl]-4-oxo-1,4-dihydro-1,8-naphthyridine-3-carboxamide] | 97 nM | 100% |  |
| CC[C@H](NC(=O)c1cn(-c2ncc(F)cc2F)c2nc(N3CC(O)(C(F)(F)F)C3)ccc2c1=O)C(F)(F)F [Example 131, 1-(3,5-Difluoropyridin-2-yl)-7-[3-hydroxy-3-(trifluoromethyl)azetidin-1-yl]-4-oxo-N-[(2S)-1,1,1-trifluorobutan-2-yl]-1,4-dihydro-1,8-naphthyridine-3-carboxamide] | 108 nM | 95.5% |  |
| CC1C(=O)N(c2ccc3c(=O)c(C(=O)N[C@@H](C4CC4)C(F)(F)F)cn(-c4ncc(F)cc4F)c3n2)CC1O (single isomer, unassigned) [Example 106] | 165 nM |  | 91.50% |
| CC(NC(=O)c1cn(-c2ncc(F)cc2F)c2nc(N3C[C@@H](O)[C@H](O)C3)ccc2c1=O)(C(F)(F)F)C(F)(F)F [Example 152, 1-(3,5-Difluoropyridin-2-yl)-7-[(3R,4R)-3,4-dihydroxypyrrolidin-1-yl]-N-(1,1,1,3,3,3-hexafluoro-2-methylpropan-2-yl)-4-oxo-1,4-dihydro-1,8-naphthyridine-3-carboxamide] | 103 nM | 99.5% |  |
| CC(NC(=O)c1cn(-c2ncc(F)cc2F)c2nc(N3CCC(O)(CO)CC3)ccc2c1=O)C(F)(F)C(F)(F)F (single isomer, unassigned) [Example 177, 1-(3,5-Difluoropyridin-2-yl)-7-[4-hydroxy-4-(hydroxymethyl)piperidin-1-yl]-4-oxo-N-(3,3,4,4,4-pentafluorobutan-2-yl)-1,4-dihydro-1,8-naphthyridine-3-carboxamide] | 38 nM | 100% |  |
| CC(NC(=O)c1cn(-c2ncc(F)cc2F)c2nc(N3CCCC[C@@H]3CO)ccc2c1=O)C(F)(F)C(F)(F)F (single isomer, unassigned) [Example 176] | 28 nM | 100% |  |
| CC1C(O)C2(CC2)C(=O)N1c1ccc2c(=O)c(C(=O)N[C@H](C3CC3)C(F)(F)F)cn(-c3ncc(F)cc3F)c2n1 (stereo partly drawn) [Example 114, N-[(1R)-1-Cyclopropyl-2,2,2-trifluoroethyl]-1-(3,5-difluoropyridin-2-yl)-7-[7-hydroxy-6-methyl-4-oxo-5-azaspiro[2.4]hept-5-yl]-4-oxo-1,4-dihydro-1,8-naphthyridine-3-carboxamide] | 111 nM | 96.5% |  |
| CC[C@@H](NC(=O)c1cn(-c2ncc(F)cc2F)c2nc(N3CC4CC4(O)C3)ccc2c1=O)C(F)(F)F (single isomer, unassigned) [Example 44] | 31 nM | 98.5% |  |
| O=C(NC1CCC1)c1cn(-c2ncc(F)cc2F)c2nc(N3CCNC3=O)ccc2c1=O [Example 146, N-Cyclobutyl-1-(3,5-difluoropyridin-2-yl)-4-oxo-7-(2-oxoimidazolidin-1-yl)-1,4-dihydro-1,8-naphthyridine-3-carboxamide] | 910 nM | 96% |  |
| O=C(NC(CC(F)(F)F)C(F)(F)F)c1cn(-c2ncc(F)cc2F)c2nc(N3C[C@@H](O)[C@H](O)C3)ccc2c1=O (stereo partly drawn) [Example 160, 1-(3,5-Difluoropyridin-2-yl)-7-[(3R,4R)-3,4-dihydroxypyrrolidin-1-yl]-N-[1,1,1,4,4,4-hexafluorobutan-2-yl]-4-oxo-1,4-dihydro-1,8-naphthyridine-3-carboxamide] | 155 nM | 90.5% |  |
| CC[C@@H](NC(=O)c1cn(-c2ncccc2Cl)c2nc(N3CC4CC4(O)C3)ccc2c1=O)C(F)(F)F (mixture of isomers) [Example 47, 1-(3-Chloropyridin-2-yl)-7-[1-hydroxy-3-azabicyclo[3.1.0]hex-3-yl]-4-oxo-N-[(2R)-1,1,1-trifluorobutan-2-yl]-1,4-dihydro-1,8-naphthyridine-3-carboxamide] | 640 nM | 89% |  |
| O=C(NC(c1cccc(F)c1)C(F)(F)F)c1cn(-c2ncccc2Cl)c2nc(N3C[C@@H](O)CC3=O)ccc2c1=O (stereo partly drawn) [Example 23, 1-(3-Chloropyridin-2-yl)-7-[(4S)-4-hydroxy-2-oxopyrrolidin-1-yl]-4-oxo-N-[2,2,2-trifluoro-1-(3-fluorophenyl)ethyl]-1,4-dihydro-1,8-naphthyridine-3-carboxamide] | 145 nM | 92% |  |
| O=C(NC1(C(F)(F)F)CCCC1)c1cn(-c2ncc(F)cc2F)c2nc(N3C[C@@H](O)[C@H](O)C3)ccc2c1=O [Example 87, 1-(3,5-Difluoropyridin-2-yl)-7-[(3R,4R)-3,4-dihydroxypyrrolidin-1-yl]-4-oxo-N-[1-(trifluoromethyl)cyclopentyl]-1,4-dihydro-1,8-naphthyridine-3-carboxamide] | 63 nM | 100% |  |
| O=C(N[C@H](C1CC1)C(F)(F)F)c1cn(-c2ncccc2F)c2nc(N3CC4C[C@@]4(O)C3)ccc2c1=O (single isomer, unassigned) [Example 136] | 64 nM | 97.5% |  |
| O=C(NC(c1ccccc1Cl)C(F)(F)F)c1cn(-c2ncc(F)cc2F)c2nc(N3C[C@@H](O)[C@H](O)C3)ccc2c1=O (mixture of isomers) [Example 83, N-[1-(2-Chlorophenyl)-2,2,2-trifluoroethyl]-1-(3,5-difluoropyridin-2-yl)-7-[(3R,4R)-3,4-dihydroxypyrrolidin-1-yl]-4-oxo-1,4-dihydro-1,8-naphthyridine-3-carboxamide] | 17 nM | 100% |  |
